Reference: patent US5175266A, “Nucleosides and oligonucleosides with a phosphate-free internucleoside backbone and process for preparing the same” (Triplex Pharmaceutical Corporation, priority 1991, dated 1992)

Assay: Chemical stability of the amide linkage (hydrolysis in NH4OH)
Format: physicochemical
Settings: 30% NH4OH, 55° C., 24 h, assessed by TLC
Description: To assess the chemical stability of the amide linkages in the synthesized compounds, the monomer (6) (T'gly) was subjected to hydrolysis in 30% NH4 OH at 55° C. for 24 h. […] Thus, the amide bond appears to be stable with respect to general base catalyzed hydrolysis. From a practical perspective, this stability to 30% NH4 OH at 55° C. confirms that the amide linkage can withstand the hydrolysis required to remove base protecting groups which are necessary for polymerization of A,C and G homologues.

SMILES: Cc1cn([C@H]2C[C@H](N)[C@@H](C(=O)NCC(=O)O)O2)c(=O)[nH]c1=O [Compound 6, 1-(3-amino-2,3-dideoxy-β-D-erythro-pentofuranosyl-5-glycine uronate)thymine]
- hydrolysis of the amide linkage: no hydrolysis of the amide linkage was detected
